Earlier results on 1 compound are cited in patent US9963464B2, “Macrocyclic compounds” (Bayer Pharma Aktiengesellschaft, priority 2014, dated 2018).

The data set concerns bronchospasms. Particulars: in vivo; cited from earlier work.

As for `C[N+]1(C)[C@@H]2C[C@@H](OC(=O)C(O)(c3cccs3)c3cccs3)C[C@H]1[C@@H]1O[C@@H]12` [tiotropium], the “protection against bronchospasms (duration)” value is listed as “more than 6 hours”.
